Data on one compound can be found in publication PMC10721329, “Quisinostat is a brain-penetrant radiosensitizer in glioblastoma” (JCI Insight, 2023).

Values joined by “and” are separate entries in the source; they are usually repeats but may differ in a detail not shown here. Equal values may be shown once. Read-outs that look alike come from different tables or passages of the source.

Series [1] in a line: Total and unbound QST in tumor and contralateral brain, short-term treatment, orthotopic GB126 PDX. In kind it is in vivo. As to the method: To establish the PK-PD correlation and efficacy in an orthotopic patient-derived xenograft (PDX) model of GBM, we implanted GB126 cells in the brains of athymic nude mice and began treatment once the tumors started growing exponentially. Tumor-bearing mice were treated with QST (10 mg/kg), with or without IR, on a MWF schedule (Figure 7A). As described above, IR was delivered locally to the brain in 2-Gy fractions 2 hours after being dosed with vehicle solution or QST, for a cumulative delivery of 6 Gy. To assess acute PD effects and drug levels after short-term QST treatment (1 week, 3 doses total), 10 mice from each experimental cohort were sacrificed 3 hours after receiving the third dose of vehicle solution or QST (Figure 7A). Plasma, tumors, and brain tissue contralateral to the tumors were collected and processed for PK and PD analyses. […] To assess PD modulation, we homogenized brain tumors to obtain whole-tissue protein lysates from each mouse and quantified changes in histone H3 acetylation levels using immunoblotting.
QST concentrations in specimens were measured using reverse-phase LC on the AB SCIEX QTRAP6500+ LC-MS/MS system by operating electrospray in the positive ion mode. For liquid chromatographic separation, gradient elution was performed using a Phenomenex Kinetex F5 100 Å column (100 × 2.1 mm, 2.6 μm). The initial composition of the mobile phase was 70% phase A (0.1% formic acid in water) and 30% phase B (0.1% formic acid in 1:1 acetonitrile/methanol) with a 0.35 mL/min flow rate. […] The total run time was 3.5 minutes. The internal standard used in this study was D8-infigratinib. […] LC-MS/MS analysis was performed using an Analyst 1.7 Chromatographic Data System. See Supplemental Methods for detailed PK experiments.
Gy on MWF for a total of 6 Gy in the first week of treatment. Treatment groups included vehicle (50% PEG-3000), QST (10 mg/kg) alone, 6 Gy whole-brain IR treatment with vehicle, and 6 Gy whole-brain IR treatment with 10 mg/kg QST. QST was administered to mice through intraperitoneal injections two hours prior to whole-brain radiation treatment. […]
For short-term PK-PD correlation studies, tumor-bearing mice were randomized into groups and underwent a single week of treatment with QST (10 mg/kg) on MWF. For mice receiving IR treatment with or without QST, mice were treated with 2 Gy on MWF for a total of 6 Gy. QST was administered to mice through intraperitoneal injections 2 hours before whole-brain radiation treatment. On the third and last day of treatment, mice were sacrificed and processed for PD and PK analyses 3 hours after administration of QST or vehicle. For PD analyses, the mice were euthanized with isoflurane, and the tumors were dissected out of the brain and flash-frozen for subsequent analysis through Western blotting and RNA sequencing.
Tissue from the hemisphere contralateral to the tumor was also collected as a normal brain/nontumor reference sample. For PK analyses, the mice were anesthetized with isoflurane, and at least 300 μL of blood was drawn from the right ventricle of the heart. The blood was collected in tubes containing 10 μL of 0.1 M KOH in EDTA to prevent blood coagulation. Blood samples were immediately centrifuged at 3000 rpm for 10 minutes at 4 °C to allow separation of plasma. After collection of the blood, the tumor was dissected out of the brain and flash -frozen.

For series [2] the following is noted: cited from earlier work.
Series [3] concerns orthotopic GB126 tumors. Nature of the series: Survival study, orthotopic GB126 PDX, QST with or without IR. In kind it is in vivo, athymic nude mice. The settings on record: for Survival, Days Post Injection (death): GB126 PDX, individual mice; for increase of median survival versus vehicle: orthotopic GB126 PDX. As to the method: We additionally questioned whether QST, either alone or in combination with IR, could extend the survival of tumor-bearing mice. In this study, mice received the same treatments described above, but after completion of the 1-week IR regimen, mice continued to receive QST at 10 mg/kg or vehicle solution on MWF until study completion, as determined by large tumor burden and onset of neurological symptoms (Figure 8A). […] Although QST monotherapy slowed tumor growth, median survival for the QST-treated mice was only 4 days longer than for the vehicle-treated mice (P < 0.01), and IR alone increased median survival by 17 days (P < 0.001; Figure 8D). However, combining QST with IR led to a significant increase in median survival (37 days, P < 0.001) compared with the vehicle (Figure 8D).
Seven-week-old Foxn1^nu nude male mice (The Jackson Laboratory) were used for in vivo orthotopic transplantation of luciferized GB126 ([…]) cells (at a density of 50,000 cells/μL). All procedures were performed as described elsewhere ([11]). All mice were observed daily and were sacrificed upon the onset of severe neurological symptoms and more than 10% body weight loss. Survival data were plotted and analyzed using GraphPad Prism 8. See Supplemental Methods for detailed in vivo methods. […]
treated with 2 Gy of ionizing radiation on MWF for a total 6 Gy (3 doses). Ionizing radiation was administered with the RS2000 series biological research irradiator (Rad Source Technologies). […]
Treatment of Mice with Intracranially Implanted QST and/or Radiation
Mice with implanted tumors were allowed to grow until the tumor bioluminescence score reached […] radiance (p/s/[…]/sr). Mice were randomized into groups before treatment. For survival studies, mice underwent treatment on MWF for the entire duration of the experiment until moribund. For mice receiving IR treatment with or without QST, mice were treated with 2 […]
Gy on MWF for a total of 6 Gy in the first week of treatment. Treatment groups included vehicle (50% PEG-3000), QST (10 mg/kg) alone, 6 Gy whole-brain IR treatment with vehicle, and 6 Gy whole-brain IR treatment with 10 mg/kg QST. QST was administered to mice through intraperitoneal injections two hours prior to whole-brain radiation treatment. Upon completion of the radiation regimen, IR-treated mice subsequently received QST or vehicle alone for the rest of the experiment. Tumor growth and treatment response was monitored by IVIS bioluminescence once per week. For survival studies, mice were sacrificed, and samples were collected for PD and PK analyses once moribund 2 hours after treatment with a final dose of QST (10 mg/kg).
For short-term PK-PD correlation studies, tumor-bearing mice were randomized into groups and underwent a single week of treatment with QST (10 mg/kg) on MWF. […]

Where [4] appears, read: acute treated tumors, individual mice.

In the case of `Cn1cc(CNCC2CCN(c3ncc(C(=O)NO)cn3)CC2)c2ccccc21` [QST, quisinostat], the “UNBOUND [QST], Brain” value in series [1] (acute treated tumor-bearing mice, individual mice) was 1.55 nM and 0.424 nM and 0.84 nM and 2.425 nM and 1.0975 nM. Besides, the concentration at 3 h is 31 nM and 8.48 nM and 48.5 nM and 21.95 nM in series [1] (acute treated tumor-bearing mice, individual mice, read-out: TOTAL [QST], brain); 25.4 nM in series [1] (athymic nude, mouse, brain tissue contralateral to the tumor, intraperitoneal, 10 mg/kg, acute treated tumor-bearing mice, mean, read-out: Total QST, brain, mean); 1.27 nM in series [1] (athymic nude, mouse, brain tissue contralateral to the tumor, intraperitoneal, 10 mg/kg, acute treated tumor-bearing mice, mean, read-out: Unbound QST, brain, mean); 588 nM in series [1] (athymic nude, mouse, brain tumor (orthotopic GB126 xenograft), intraperitoneal, 10 mg/kg, acute treated tumors, mean, read-out: Total QST, tumor, mean); 29.4 nM in series [1] (athymic nude, mouse, brain tumor (orthotopic GB126 xenograft), intraperitoneal, 10 mg/kg, acute treated tumors, mean, read-out: Unbound QST, tumor, mean); 16.8 nM in series [1] (athymic nude, mouse, in vivo, 10 mg/kg, acute treated tumor-bearing mice, individual mice, read-out: TOTAL [QST], brain). Besides, in series [1] (setting [4]), the “TOTAL [QST], tumor” value was 634.32 nM and 1029.61 nM and 23.89 nM and 646.61 nM and 605.65 nM. In addition, the “UNBOUND [QST], Tumor” value in series [1] (setting [4]) is 31.716 nM and 51.4805 nM and 1.1945 nM and 32.3305 nM and 30.2825 nM. Also, the maximum-tolerated dose in series [2] (patients, given 3 times weekly) is listed as 12 mg. In addition, in series [2] (phase I trials), the “hematologic toxicities (grade 1 and 2), share of patients” value is given as less than 5%. The “Survival, Days Post Injection (death)” value was 79 days and 85 days and 83 days and 86 days and 75 days and 84 days and 82 days in series [3] (QST 10 mg/kg + IR 6 Gy); 65 days and 50 days and 49 days and 48 days and 46 days and 57 days and 54 days and 66 days in series [3] (QST 10 mg/kg alone). The figures for the “increase of median survival versus vehicle” value in series [3] (QST 10 mg/kg MWF + IR 6 Gy) and in series [3] (QST 10 mg/kg MWF monotherapy) were 37 days and 4 days, respectively.
